Data from US20230085307A1, “PYRIDAZINONE COMPOUND AND HERBICIDE” (NISSAN CHEMICAL CORPORATION, priority 2019, published 2023).

Experiments:
lambsquarters [1] = test: Test Example 4: herbicidal effect by soil treatment (Table 19, symbol O); format: in vivo, lambsquarters (Chenopodium album); conditions: amount of applied herbicide 320 g/ha
Method in brief: (§1)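 Step 1: sow seeds in sterilized diluvial soil, cover ~1.5 cm. Step 2: spray diluted emulsion onto soil surface at predetermined rate. Step 3: greenhouse, 25–30° C, three weeks. Step 4: grade effect on each plant by earlier criteria.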

redroot pigweed [2] = test: Test Example 5: herbicidal effect by foliage application, plastic box (Table 20, symbol N); format: in vivo, redroot pigweed (Amaranthus retroflexus); conditions: evaluated three weeks after application
Method in brief: (§2)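 Foliar spray test: emulsion formulation diluted in water to a set application rate, sprayed onto 14-day-old plants raised in diluvial soil at 25° C to 30° C under glass. Both herbicidal effect and crop effect rated visually three weeks later.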

velvetleaf [3] = test: Test Example 4: herbicidal effect by soil treatment (Table 19, symbol M); format: in vivo, velvetleaf (Abutilon theophrasti); conditions: amount of applied herbicide 320 g/ha
Method in brief: as §1

Japanese bulrush = test: Test Example 1: herbicidal activity, application before weed generation under submerged conditions (Table 16, symbol B); format: in vivo, Japanese bulrush (Schoenoplectus juncoides)
Method in brief: (§3)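 Alluvial soil was flooded to 4 cm depth, weed seeds were sown mixed and 2.5-leaf rice seedlings were transplanted. On sowing day, the compound's emulsion, diluted in water to a set dose, was applied to the water surface. Plants grew at 25–30 °C and were scored 0–5 after three weeks.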

chickweed [4] = test: Test Example 4: herbicidal effect by soil treatment (Table 19, symbol P); format: in vivo, common chickweed (Stellaria media); conditions: amount of applied herbicide 320 g/ha
Method in brief: as §1

wild oat [5] = test: Test Example 5: herbicidal effect by foliage application, plastic box (Table 20, symbol I); format: in vivo, wild oat (Avena fatua); conditions: evaluated three weeks after application
Method in brief: as §2

Italian ryegrass [6] = test: Test Example 5: herbicidal effect by foliage application, plastic box (Table 20, symbol K); format: in vivo, Italian ryegrass (Lolium multiflorum); conditions: evaluated three weeks after application
Method in brief: as §2

wild oat [7] = test: Test Example 4: herbicidal effect by soil treatment (Table 19, symbol I); format: in vivo, wild oat (Avena fatua); conditions: amount of applied herbicide 320 g/ha
Method in brief: as §1

lambsquarters [8] = test: Test Example 5: herbicidal effect by foliage application, plastic box (Table 20, symbol O); format: in vivo, lambsquarters (Chenopodium album); conditions: evaluated three weeks after application
Method in brief: as §2

barnyard grass [9] = test: Test Example 5: herbicidal effect by foliage application, plastic box (Table 20, symbol H); format: in vivo, barnyard grass (Echinochloa crus-galli); conditions: evaluated three weeks after application
Method in brief: as §2

chickweed [10] = test: Test Example 5: herbicidal effect by foliage application, plastic box (Table 20, symbol P); format: in vivo, common chickweed (Stellaria media); conditions: evaluated three weeks after application
Method in brief: as §2

green foxtail [11] = test: Test Example 5: herbicidal effect by foliage application, plastic box (Table 20, symbol G); format: in vivo, green foxtail (Setaria viridis); conditions: evaluated three weeks after application
Method in brief: as §2

velvetleaf [12] = test: Test Example 5: herbicidal effect by foliage application, plastic box (Table 20, symbol M); format: in vivo, velvetleaf (Abutilon theophrasti); conditions: evaluated three weeks after application
Method in brief: as §2

blackgrass [13] = test: Test Example 4: herbicidal effect by soil treatment (Table 19, symbol J); format: in vivo, blackgrass (Alopecurus myosuroides); conditions: amount of applied herbicide 320 g/ha
Method in brief: as §1

rice flat sedge = test: Test Example 3: herbicidal effect by foliage application, Wagner pot (Table 18, symbol E); format: in vivo, rice flat sedge (Cyperus iria)
Method in brief: (§4)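 Plants were sown in alluvial soil held under 0.1–0.5 cm standing water and grown 14 days in a greenhouse at 25–30 °C. An emulsifiable formulation, water-diluted to the set dose, was then sprayed onto the foliage, and effects were scored three weeks later using previously defined criteria.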

persian speedwell [14] = test: Test Example 4: herbicidal effect by soil treatment (Table 19, symbol R); format: in vivo, Persian speedwell (Veronica persica); conditions: amount of applied herbicide 320 g/ha
Method in brief: as §1

blackgrass [15] = test: Test Example 5: herbicidal effect by foliage application, plastic box (Table 20, symbol J); format: in vivo, blackgrass (Alopecurus myosuroides); conditions: evaluated three weeks after application
Method in brief: as §2

late watergrass = test: Test Example 1: herbicidal activity, application before weed generation under submerged conditions (Table 16, symbol A); format: in vivo, late watergrass (Echinochloa oryzicola)
Method in brief: as §3

southern crabgrass [16] = test: Test Example 5: herbicidal effect by foliage application, plastic box (Table 20, symbol F); format: in vivo, southern crabgrass (Digitaria ciliaris); conditions: evaluated three weeks after application
Method in brief: as §2

Chinese sprangletop = test: Test Example 3: herbicidal effect by foliage application, Wagner pot (Table 18, symbol D); format: in vivo, chinese sprangletop (Leptochloa chinensis)
Method in brief: as §4

southern crabgrass [17] = test: Test Example 4: herbicidal effect by soil treatment (Table 19, symbol F); format: in vivo, southern crabgrass (Digitaria ciliaris); conditions: amount of applied herbicide 320 g/ha
Method in brief: as §1

Italian ryegrass [18] = test: Test Example 4: herbicidal effect by soil treatment (Table 19, symbol K); format: in vivo, Italian ryegrass (Lolium multiflorum); conditions: amount of applied herbicide 320 g/ha
Method in brief: as §1

persian speedwell [19] = test: Test Example 5: herbicidal effect by foliage application, plastic box (Table 20, symbol R); format: in vivo, Persian speedwell (Veronica persica); conditions: evaluated three weeks after application
Method in brief: as §2

windgrass [20] = test: Test Example 5: herbicidal effect by foliage application, plastic box (Table 20, symbol L); format: in vivo, windgrass (Apera spica-venti); conditions: evaluated three weeks after application
Method in brief: as §2

windgrass [21] = test: Test Example 4: herbicidal effect by soil treatment (Table 19, symbol L); format: in vivo, windgrass (Apera spica-venti); conditions: amount of applied herbicide 320 g/ha
Method in brief: as §1

barnyard grass [22] = test: Test Example 4: herbicidal effect by soil treatment (Table 19, symbol H); format: in vivo, barnyard grass (Echinochloa crus-galli); conditions: amount of applied herbicide 320 g/ha
Method in brief: as §1

oval-leafed pondweed = test: Test Example 1: herbicidal activity, application before weed generation under submerged conditions (Table 16, symbol C); format: in vivo, oval-leafed pondweed (Monochoria vaginalis)
Method in brief: as §3

barnyard grass [23] = test: Test Example 3: herbicidal effect by foliage application, Wagner pot (Table 18, symbol H); format: in vivo, barnyard grass (Echinochloa crus-galli)
Method in brief: as §4

redroot pigweed [24] = test: Test Example 4: herbicidal effect by soil treatment (Table 19, symbol N); format: in vivo, redroot pigweed (Amaranthus retroflexus); conditions: amount of applied herbicide 320 g/ha
Method in brief: as §1

green foxtail [25] = test: Test Example 4: herbicidal effect by soil treatment (Table 19, symbol G); format: in vivo, green foxtail (Setaria viridis); conditions: amount of applied herbicide 320 g/ha
Method in brief: as §1

[26] = foliage application, AAH 320 g/ha
[27] = amount of applied herbicide 320 g/ha
[28] = amount of applied herbicide 320 g/ha, foliage application after 14-day growth

Cc1nn(C)c(=O)c(-c2c(-c3ccc([S+](C)[O-])cc3)sc3ccc(F)cc23)c1O (stereo not drawn) [2-256]
herbicidal effect on O: lambsquarters (lambsquarters [1]): 0 (Herbicidal rate of 5% or less (almost no effect)) | N: redroot pigweed, herbicidal effect (criteria 0-5) (redroot pigweed [2]; [26]): 5 (Herbicidal rate of 90% or more (almost completely withered)) | herbicidal effect on M: velvetleaf (velvetleaf [3]): 0 (Herbicidal rate of 5% or less (almost no effect)) | Herbicidal effect on B: Japanese bulrush (grade 0-5) (Japanese bulrush; 320 g/ha applied herbicide): 0 (Herbicidal rate of 5% or less (almost no effect)) | herbicidal effect on P: chickweed (chickweed [4]): 3 (Herbicidal rate of 40% or more and less than 70%) | I: wild oat, herbicidal effect (criteria 0-5) (wild oat [5]; [26]): 5 (Herbicidal rate of 90% or more (almost completely withered)) | K: Italian ryegrass, herbicidal effect (criteria 0-5) (Italian ryegrass [6]; [26]): 5 (Herbicidal rate of 90% or more (almost completely withered)) | herbicidal effect on I: wild oat (wild oat [7]): 1 (Herbicidal rate of 5% or more and less than 20%) | O: lambsquarters, herbicidal effect (criteria 0-5) (lambsquarters [8]; [26]): 5 (Herbicidal rate of 90% or more (almost completely withered)) | H: barnyard grass, herbicidal effect (criteria 0-5) (barnyard grass [9]; [26]): 1 (Herbicidal rate of 5% or more and less than 20%) | P: chickweed, herbicidal effect (criteria 0-5) (chickweed [10]; [26]): 5 (Herbicidal rate of 90% or more (almost completely withered)) | G: green foxtail, herbicidal effect (criteria 0-5) (green foxtail [11]; [26]): 3 (Herbicidal rate of 40% or more and less than 70%) | M: velvetleaf, herbicidal effect (criteria 0-5) (velvetleaf [12]; [26]): 4 (Herbicidal rate of 70% or more and less than 90%) | herbicidal effect on J: blackgrass (blackgrass [13]): 0 (Herbicidal rate of 5% or less (almost no effect)) | herbicidal effect on E: rice flat sedge (rice flat sedge; [27]): 4 (Herbicidal rate of 70% or more and less than 90%) | herbicidal effect on R: persian speedwell (persian speedwell [14]): 4 (Herbicidal rate of 70% or more and less than 90%) | J: blackgrass, herbicidal effect (criteria 0-5) (blackgrass [15]; [26]): 3 (Herbicidal rate of 40% or more and less than 70%) | Herbicidal effect on A: late watergrass (grade 0-5) (late watergrass; 320 g/ha applied herbicide): 2 (Herbicidal rate of 20% or more and less than 40%) | F: southern crabgrass, herbicidal effect (criteria 0-5) (southern crabgrass [16]; [26]): 4 (Herbicidal rate of 70% or more and less than 90%) | herbicidal effect on D: Chinese sprangletop (Chinese sprangletop; [27]): 4 (Herbicidal rate of 70% or more and less than 90%) | herbicidal effect on F: southern crabgrass (southern crabgrass [17]): 0 (Herbicidal rate of 5% or less (almost no effect)) | herbicidal effect on K: Italian ryegrass (Italian ryegrass [18]): 3 (Herbicidal rate of 40% or more and less than 70%) | R: persian speedwell, herbicidal effect (criteria 0-5) (persian speedwell [19]; [26]): 5 (Herbicidal rate of 90% or more (almost completely withered)) | L: windgrass, herbicidal effect (criteria 0-5) (windgrass [20]; [26]): 5 (Herbicidal rate of 90% or more (almost completely withered)) | herbicidal effect on L: windgrass (windgrass [21]): 0 (Herbicidal rate of 5% or less (almost no effect)) | herbicidal effect on H: barnyard grass (barnyard grass [22]): 0 (Herbicidal rate of 5% or less (almost no effect)) | Herbicidal effect on C: oval-leafed pondweed (grade 0-5) (oval-leafed pondweed; 320 g/ha applied herbicide): 0 (Herbicidal rate of 5% or less (almost no effect)) | herbicidal effect on H: barnyard grass (barnyard grass [23]; [27]): 5 (Herbicidal rate of 90% or more (almost completely withered)) | herbicidal effect on N: redroot pigweed (redroot pigweed [24]): 3 (Herbicidal rate of 40% or more and less than 70%) | herbicidal effect on G: green foxtail (green foxtail [25]): 0 (Herbicidal rate of 5% or less (almost no effect))

CSc1ccc(-c2sc3c(C)cccc3c2-c2c(O)c(C)nn(C)c2=O)cc1 [4-118]
Herbicidal effect by soil treatment, O: lambsquarters (lambsquarters [1]): 5 (Herbicidal rate of 90% or more (almost completely withered)) | Herbicidal effect by foliage application, N: redroot pigweed (redroot pigweed [2]; [28]): 5 (Herbicidal rate of 90% or more (almost completely withered)) | Herbicidal effect by soil treatment, M: velvetleaf (velvetleaf [3]): 3 (Herbicidal rate of 40% or more and less than 70%) | Herbicidal effect, B: Japanese bulrush (Japanese bulrush; [27]): 2 (Herbicidal rate of 20% or more and less than 40%) | Herbicidal effect by soil treatment, P: chickweed (chickweed [4]): 4 (Herbicidal rate of 70% or more and less than 90%) | Herbicidal effect by foliage application, I: wild oat (wild oat [5]; [28]): 3 (Herbicidal rate of 40% or more and less than 70%) | Herbicidal effect by foliage application, K: Italian ryegrass (Italian ryegrass [6]; [28]): 5 (Herbicidal rate of 90% or more (almost completely withered)) | Herbicidal effect by soil treatment, I: wild oat (wild oat [7]): 0 (Herbicidal rate of 5% or less (almost no effect)) | Herbicidal effect by foliage application, O: lambsquarters (lambsquarters [8]; [28]): 5 (Herbicidal rate of 90% or more (almost completely withered)) | Herbicidal effect by foliage application, H: barnyard grass (barnyard grass [9]; [28]): 3 (Herbicidal rate of 40% or more and less than 70%) | Herbicidal effect by foliage application, P: chickweed (chickweed [10]; [28]): 5 (Herbicidal rate of 90% or more (almost completely withered)) | Herbicidal effect by foliage application, G: green foxtail (green foxtail [11]; [28]): 3 (Herbicidal rate of 40% or more and less than 70%) | Herbicidal effect by foliage application, M: velvetleaf (velvetleaf [12]; [28]): 5 (Herbicidal rate of 90% or more (almost completely withered)) | Herbicidal effect by soil treatment, J: blackgrass (blackgrass [13]): 0 (Herbicidal rate of 5% or less (almost no effect)) | herbicidal effect on rice flat sedge (E) (rice flat sedge; 320 g/ha): 4 (Herbicidal rate of 70% or more and less than 90%) | Herbicidal effect by soil treatment, R: persian speedwell (persian speedwell [14]): 4 (Herbicidal rate of 70% or more and less than 90%) | Herbicidal effect by foliage application, J: blackgrass (blackgrass [15]; [28]): 5 (Herbicidal rate of 90% or more (almost completely withered)) | Herbicidal effect, A: late watergrass (late watergrass; [27]): 3 (Herbicidal rate of 40% or more and less than 70%) | Herbicidal effect by foliage application, F: southern crabgrass (southern crabgrass [16]; [28]): 3 (Herbicidal rate of 40% or more and less than 70%) | herbicidal effect on Chinese sprangletop (D) (Chinese sprangletop; 320 g/ha): 3 (Herbicidal rate of 40% or more and less than 70%) | Herbicidal effect by soil treatment, F: southern crabgrass (southern crabgrass [17]): 0 (Herbicidal rate of 5% or less (almost no effect)) | Herbicidal effect by soil treatment, K: Italian ryegrass (Italian ryegrass [18]): 5 (Herbicidal rate of 90% or more (almost completely withered)) | Herbicidal effect by foliage application, R: persian speedwell (persian speedwell [19]; [28]): 5 (Herbicidal rate of 90% or more (almost completely withered)) | Herbicidal effect by foliage application, L: windgrass (windgrass [20]; [28]): 5 (Herbicidal rate of 90% or more (almost completely withered)) | Herbicidal effect by soil treatment, L: windgrass (windgrass [21]): 0 (Herbicidal rate of 5% or less (almost no effect)) | Herbicidal effect by soil treatment, H: barnyard grass (barnyard grass [22]): 0 (Herbicidal rate of 5% or less (almost no effect)) | Herbicidal effect, C: oval-leafed pondweed (oval-leafed pondweed; [27]): 2 (Herbicidal rate of 20% or more and less than 40%) | herbicidal effect on barnyard grass (H) (barnyard grass [23]; 320 g/ha): 4 (Herbicidal rate of 70% or more and less than 90%) | Herbicidal effect by soil treatment, N: redroot pigweed (redroot pigweed [24]): 5 (Herbicidal rate of 90% or more (almost completely withered)) | Herbicidal effect by soil treatment, G: green foxtail (green foxtail [25]): 0 (Herbicidal rate of 5% or less (almost no effect))
